Assay results published in patent US11332485B2, “Penicillin-binding protein inhibitors” (priority 2017, dated 2022).
Read-outs that look alike come from different tables or passages of the source.

Experiments:
[1] = tested on: E. coli DH5α/pLBII; assay: Broth microdilution MIC assay, empty vector control strain; assay type: cell-based; conditions: Escherichia coli, read-out: E. coli DH5α/pLBII Microbiological Activity (MIC)
Method: (§1) To determine the ability of test compounds to potentiate the inhibition of the growth of bacterial strains, classic cell based broth microdilution MIC assays were employed. MIC assays are performed according to CLSI methods except where otherwise noted (CLSI, 2011 and CLSI, 2009). The reference strain S. aureus ATCC 29213 and the hyper-permeable E. coli 901C were used to determine the ability of the PBP compounds to inhibit bacterial growth. Briefly, cryo-preserved bacterial cultures of clinical strains are streaked for isolation on appropriate agar medium, in this case Mueller Hinton II agar. Following incubation to allow formation of colonies these plates are sealed with parafilm and stored refrigerated for up to two weeks. For preparation of assay inocula and to ensure low variability, at least 5 colonies are picked from the agar plates with an inoculating loop and aseptically transferred to a culture tube containing 3 mL of Mueller-Hinton Broth (supplemented with divalent cations to required levels based on Manufacturers' certification). The broth culture is grown for 3-5 hours at 37° C. with shaking at 200 rpm. Meanwhile, 2-fold serial dilutions of test compounds are conducted in a 96 well plate with a final volume of 75 μL per well at 2-fold the final desired concentration. After the dilution plates are set up the growing cultures are then diluted in a cuvette containing MH II broth and the optical density is measured at 600 nm. Inocula are diluted such that 75 μL of this culture in Mueller-Hinton Broth results in a starting bacterial concentration of 5×10^5 CFU/mL when added to the dilution plates. The plates are incubated 16-20 hours at 37° C. The MIC is read visually as the lowest concentration well with no bacterial growth.
(§2) To determine if test compounds were affected by CTX-M15, the most abundant extended spectrum β-lactamase in clinical settings worldwide, the inhibition of the growth of an engineered strain of Escherichia coli harboring CTX-M15 was tested. This strain was constructed by cloning the gene encoding CTX-M15 into the NdeI and BamHI restriction endonuclease sites of plasmid pLBII, placing the gene(s) under the control of the Lac promoter. The constructed expression plasmid for CTX-M15 was used to transform competent E. coli DH5a cells to make the engineered strain, including an empty pLBII vector control strain. The classic cell based broth microdilution MIC assay was employed as described above with the addition of control antibiotics, known to be degraded by β-lactamases (Ceftazidime, piperacillin and piperacillin+tazobactam).

[2] = tested on: E. coli DH5α/pLBII-CTX-M15; assay: Broth microdilution MIC assay, engineered strain producing CTX-M15; assay type: cell-based, Escherichia coli; conditions: Escherichia coli, read-out: E. coli DH5α/pLBII-CTX-M15 Microbiological Activity (MIC)
Method: as §1, §2

[3] = tested on: S. aureus ATCC 29213; assay: Broth microdilution MIC assay; assay type: cell-based; conditions: Staphylococcus aureus
Method: as §1

[4] = tested on: hyper-permeable E. coli 901C; assay: Broth microdilution MIC assay; assay type: cell-based; conditions: Escherichia coli, read-out: E. coli 901C MIC
Method: as §1

[5] = ATCC29213, broth microdilution, 16-20 hours at 37° C., read-out: S. aureus 29213 MIC

Structure (SMILES)	MIC [1] [µg/mL]	MIC [2] [µg/mL]	MIC [3, 5] [µg/mL]	MIC [4] [µg/mL]	MIC ([3]; ATCC29213, read-out: S. aureus 29213 MIC) [µg/mL]
N[C@H](C(=O)N[C@H]1Cc2cccc(C(=O)O)c2OB1O)c1ccc(O)cc1 [Example 7, (R)-3-((S)-2-amino-2-(4-hydroxyphenyl)acetamido)-2-hydroxy-3,4-dihydro-2H-benzo[e][1,2]oxaborinine-8-carboxylic acid]	128 to 256	128 to 256	64 to 128	> 128	
Nc1nc([C@@H](N)C(=O)N[C@H]2Cc3cccc(C(=O)O)c3OB2O)cs1 [Example 8, (R)-3-((R)-2-amino-2-(2-aminothiazol-4-yl)acetamido)-2-hydroxy-3,4-dihydro-2H-benzo[e][1,2]oxaborinine-8-carboxylic acid]	> 512	> 512	> 128	> 128	
Nc1nc([C@H](N)C(=O)N[C@H]2Cc3cccc(C(=O)O)c3OB2O)cs1 [Example 9, (R)-3-((S)-2-amino-2-(2-aminothiazol-4-yl)acetamido)-2-hydroxy-3,4-dihydro-2H-benzo[e][1,2]oxaborinine-8-carboxylic acid]	128 to 256	128 to 256	> 128	> 128	
Cc1cc(C)n2c1C=C1C=CC(CCC(=O)NCCON=C(C(=O)N[C@H]3Cc4cccc(C(=O)O)c4OB3O)c3csc(N)n3)=[N+]1[B-]2(F)F [Example 13, (R)-3-(2-(2-aminothiazol-4-yl)-2-((2-(3-(5,5-difluoro-7,9-dimethyl-5H-4λ^4,5λ^4-dipyrrolo[1,2-c:2′,1′-f][1,3,2]diazaborinin-3-yl)propanamido)ethoxy)imino)acetamido)-2-hydroxy-3,4-dihydro-2H-benzo[e][1,2]oxaborinine-8-carboxylic acid]	> 512	> 512		> 128	> 128
CN(C)C(=O)NC(C(=O)N[C@H]1Cc2cccc(C(=O)O)c2OB1O)c1csc(N)n1 (stereo partly drawn) [Example 14, (3R)-3-(2-(2-aminothiazol-4-yl)-2-(3,3-dimethylureido)acetamido)-2-hydroxy-3,4-dihydro-2H-benzo[e][1,2]oxaborinine-8-carboxylic acid]	128 to 256	128 to 256	> 128	< 64	
Nc1nc(C(NC(=O)c2nccs2)C(=O)N[C@H]2Cc3cccc(C(=O)O)c3OB2O)cs1 (stereo partly drawn) [Example 15, (3R)-3-(2-(2-aminothiazol-4-yl)-2-(thiazole-2-carboxamido)acetamido)-2-hydroxy-3,4-dihydro-2H-benzo[e][1,2]oxaborinine-8-carboxylic acid]	128 to 256	128 to 256	< 64	< 64	
Nc1nc(C(NC(=O)c2cscn2)C(=O)N[C@H]2Cc3cccc(C(=O)O)c3OB2O)cs1 (stereo partly drawn) [Example 16, (3R)-3-(2-(2-aminothiazol-4-yl)-2-(thiazole-4-carboxamido)acetamido)-2-hydroxy-3,4-dihydro-2H-benzo[e][1,2]oxaborinine-8-carboxylic acid]	128 to 256	128 to 256	64 to 128	< 64	
Nc1nc(C(NC(=O)N2CCOCC2)C(=O)N[C@H]2Cc3cccc(C(=O)O)c3OB2O)cs1 (stereo partly drawn) [Example 18, (3R)-3-(2-(2-aminothiazol-4-yl)-2-(morpholine-4-carboxamido)acetamido)-2-hydroxy-3,4-dihydro-2H-benzo[e][1,2]oxaborinine-8-carboxylic acid]	128 to 256	128 to 256	> 128	< 64	
Nc1nc(C(NC(=O)Cc2ncccn2)C(=O)N[C@H]2Cc3cccc(C(=O)O)c3OB2O)cs1 (stereo partly drawn) [Example 21, (3R)-3-(2-(2-aminothiazol-4-yl)-2-(2-(pyrimidin-2-yl)acetamido)acetamido)-2-hydroxy-3,4-dihydro-2H-benzo[e][1,2]oxaborinine-8-carboxylic acid]	> 512	> 512	64 to 128	64 to 128	
Nc1nc(CC(=O)NC(C(=O)N[C@H]2Cc3cccc(C(=O)O)c3OB2O)c2csc(N)n2)cs1 (stereo partly drawn) [Example 22, (3R)-3-(2-(2-aminothiazol-4-yl)-2-(2-(2-aminothiazol-4-yl)acetamido)acetamido)-2-hydroxy-3,4-dihydro-2H-benzo[e][1,2]oxaborinine-8-carboxylic acid]	128 to 256	128 to 256	64 to 128	< 64	
CN(C)S(=O)(=O)NC(C(=O)N[C@H]1Cc2cccc(C(=O)O)c2OB1O)c1csc(N)n1 (stereo partly drawn) [Example 23, (3R)-3-(2-(2-aminothiazol-4-yl)-2-((N,N-dimethylsulfamoyl)amino)acetamido)-2-hydroxy-3,4-dihydro-2H-benzo[e][1,2]oxaborinine-8-carboxylic acid]	128 to 256	128 to 256	> 128	< 64	
Nc1nc(C(NS(=O)(=O)N2CCOCC2)C(=O)N[C@H]2Cc3cccc(C(=O)O)c3OB2O)cs1 (stereo partly drawn) [Example 24, (3R)-3-(2-(2-aminothiazol-4-yl)-2-(morpholine-4-sulfonamido)acetamido)-2-hydroxy-3,4-dihydro-2H-benzo[e][1,2]oxaborinine-8-carboxylic acid]	128 to 256	128 to 256	> 128	< 64	
CCNC(=O)NC(C(=O)N[C@H]1Cc2cccc(C(=O)O)c2OB1O)c1csc(N)n1 (stereo partly drawn) [Example 25, (3R)-3-(2-(2-aminothiazol-4-yl)-2-(3-ethylureido)acetamido)-2-hydroxy-3,4-dihydro-2H-benzo[e][1,2]oxaborinine-8-carboxylic acid]	32 to 64	32 to 64	> 128	< 64	
Nc1nc(C(NS(=O)(=O)c2cccnc2)C(=O)N[C@H]2Cc3cccc(C(=O)O)c3OB2O)cs1 (stereo partly drawn) [Example 27, (3R)-3-(2-(2-aminothiazol-4-yl)-2-(pyridine-3-sulfonamido)acetamido)-2-hydroxy-3,4-dihydro-2H-benzo[e][1,2]oxaborinine-8-carboxylic acid]	128 to 256	128 to 256	> 128	< 64	
COC(=O)C(=O)NC(C(=O)N[C@H]1Cc2cccc(C(=O)O)c2OB1O)c1csc(N)n1 (stereo partly drawn) [Example 28, (3R)-3-(2-(2-aminothiazol-4-yl)-2-(2-methoxy-2-oxoacetamido)acetamido)-2-hydroxy-3,4-dihydro-2H-benzo[e][1,2]oxaborinine-8-carboxylic acid]	32 to 64	32 to 64	> 128	< 64	
Nc1nc(C(NC(=O)CO)C(=O)N[C@H]2Cc3cccc(C(=O)O)c3OB2O)cs1 (stereo partly drawn) [Example 29, (3R)-3-(2-(2-aminothiazol-4-yl)-2-(2-hydroxyacetamido)acetamido)-2-hydroxy-3,4-dihydro-2H-benzo[e][1,2]oxaborinine-8-carboxylic acid]	32 to 64	32 to 64	> 128	< 64	
Nc1nc(C(NC(=O)Nc2cccnc2)C(=O)N[C@H]2Cc3cccc(C(=O)O)c3OB2O)cs1 (stereo partly drawn) [Example 30, (3R)-3-(2-(2-aminothiazol-4-yl)-2-(3-(pyridin-3-yl)ureido)acetamido)-2-hydroxy-3,4-dihydro-2H-benzo[e][1,2]oxaborinine-8-carboxylic acid]	128 to 256	128 to 256	64 to 128	64 to 128	
CCN1CCN(C(=O)N[C@@H](C)C(=O)N[C@H]2Cc3cccc(C(=O)O)c3OB2O)C(=O)C1=O [Example 31, (R)-3-((S)-2-(4-Ethyl-2,3-dioxopiperazine-1-carboxamido)propanamido)-2-hydroxy-3,4-dihydro-2H-benzo[e][1,2]oxaborinine-8-carboxylic acid]	> 512	> 512	> 128	> 128	
CCN1CCN(C(=O)NC(C(=O)N[C@@H]2Cc3cccc(C(=O)O)c3OB2O)c2csc(N)n2)C(=O)C1=O (stereo partly drawn) [Example 33, (3S)-3-(2-(2-aminothiazol-4-yl)-2-(4-ethyl-2,3-dioxopiperazine-1-carboxamido)acetamido)-2-hydroxy-3,4-dihydro-2H-benzo[e][1,2]oxaborinine-8-carboxylic acid]	128 to 256	128 to 256	> 128	< 64	
